This assay has as its target Human PDE4D FL (Homo sapiens (Human), UniProt Q08499). Nature of the assay: PDE4D3 Scintillation Proximity Assay (SPA), inhibition of enzyme activity. The assay is classed as biochemical. The settings on record: geometric mean of 2-9 determinations unless otherwise indicated; 1 μM cAMP, 30 min at 25° C.

Molecules are shown by their SMILES.

Sequence of Human PDE4D FL (Q08499 186-808): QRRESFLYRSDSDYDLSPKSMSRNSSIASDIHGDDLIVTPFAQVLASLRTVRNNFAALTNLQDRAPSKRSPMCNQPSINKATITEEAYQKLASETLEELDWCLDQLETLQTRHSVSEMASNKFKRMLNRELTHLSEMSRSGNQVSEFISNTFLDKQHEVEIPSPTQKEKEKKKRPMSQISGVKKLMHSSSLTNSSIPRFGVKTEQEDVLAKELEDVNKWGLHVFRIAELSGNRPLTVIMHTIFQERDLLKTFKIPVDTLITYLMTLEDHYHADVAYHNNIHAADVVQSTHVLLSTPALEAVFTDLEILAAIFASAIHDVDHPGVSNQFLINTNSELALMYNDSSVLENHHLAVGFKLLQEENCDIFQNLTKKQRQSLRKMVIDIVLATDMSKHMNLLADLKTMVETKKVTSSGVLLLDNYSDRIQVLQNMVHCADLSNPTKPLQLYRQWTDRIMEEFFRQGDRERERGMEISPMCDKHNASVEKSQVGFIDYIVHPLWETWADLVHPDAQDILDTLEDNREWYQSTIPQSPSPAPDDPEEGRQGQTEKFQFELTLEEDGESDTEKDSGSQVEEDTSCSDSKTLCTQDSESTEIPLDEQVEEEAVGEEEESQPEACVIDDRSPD

With `COC1CN(C(=O)c2nc3cccnn3c2-c2ccc(Cl)cc2)C1` [Example 31, [3-(4-chlorophenyl)imidazo[1,2-b]pyridazin-2-yl](3-methoxyazetidin-1-yl)methanone], the IC50 was greater than 26.2 µM.

`O=C(NC1CC1)c1nc2cccnn2c1-c1ccnc(C(F)(F)F)c1` [Example 42, N-cyclopropyl-3-[2-(trifluoromethyl)pyridin-4-yl]imidazo[1,2-b]pyridazine-2-carboxamide] showed an IC50 greater than 12.2 µM.

A word on the IC50: it is the concentration that inhibits the measured activity by half.

Values taken from patent US10077269B2, “Imidazopyridazine compounds” (Pfizer Inc., priority 2014, dated 2018).
